From patent US10160747B2, “Compounds and methods for kinase modulation, and indications therefor” (Plexxikon Inc., priority 2016, dated 2018)

Tests used:
[1] = test system: MOLM-14 F691L (endogenous FLT3 ITD and transfected FLT3 F691L); assay: MOLM-14 F691L cell proliferation assay (CellTiter-Glo); assay type: cell-based; conditions: Homo sapiens, MOLM-14, 72 h; 3 d growth, GMean
How it was run: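 Three-day proliferation at 37 °C/5% CO2 of FLT3-ITD MOLM-14 lines with D835Y or F691L mutation, seeded 1×10^4 per well. Compounds at eight points, top 1 μM final, 0.2% DMSO. ATP luminescence (CellTiter-Glo) gives IC50.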

FLT3-D835Y = target: T1, FLT3-D835Y (Homo sapiens, UniProt P36888, D835Y); assay: FLT3-D835Y recombinant enzyme kinase assay (AlphaScreen); assay type: biochemical; conditions: 8 pt, GMean
T1 construct: purchased Invitrogen PV3967
T1 sequence (P36888 27-993 D835Y): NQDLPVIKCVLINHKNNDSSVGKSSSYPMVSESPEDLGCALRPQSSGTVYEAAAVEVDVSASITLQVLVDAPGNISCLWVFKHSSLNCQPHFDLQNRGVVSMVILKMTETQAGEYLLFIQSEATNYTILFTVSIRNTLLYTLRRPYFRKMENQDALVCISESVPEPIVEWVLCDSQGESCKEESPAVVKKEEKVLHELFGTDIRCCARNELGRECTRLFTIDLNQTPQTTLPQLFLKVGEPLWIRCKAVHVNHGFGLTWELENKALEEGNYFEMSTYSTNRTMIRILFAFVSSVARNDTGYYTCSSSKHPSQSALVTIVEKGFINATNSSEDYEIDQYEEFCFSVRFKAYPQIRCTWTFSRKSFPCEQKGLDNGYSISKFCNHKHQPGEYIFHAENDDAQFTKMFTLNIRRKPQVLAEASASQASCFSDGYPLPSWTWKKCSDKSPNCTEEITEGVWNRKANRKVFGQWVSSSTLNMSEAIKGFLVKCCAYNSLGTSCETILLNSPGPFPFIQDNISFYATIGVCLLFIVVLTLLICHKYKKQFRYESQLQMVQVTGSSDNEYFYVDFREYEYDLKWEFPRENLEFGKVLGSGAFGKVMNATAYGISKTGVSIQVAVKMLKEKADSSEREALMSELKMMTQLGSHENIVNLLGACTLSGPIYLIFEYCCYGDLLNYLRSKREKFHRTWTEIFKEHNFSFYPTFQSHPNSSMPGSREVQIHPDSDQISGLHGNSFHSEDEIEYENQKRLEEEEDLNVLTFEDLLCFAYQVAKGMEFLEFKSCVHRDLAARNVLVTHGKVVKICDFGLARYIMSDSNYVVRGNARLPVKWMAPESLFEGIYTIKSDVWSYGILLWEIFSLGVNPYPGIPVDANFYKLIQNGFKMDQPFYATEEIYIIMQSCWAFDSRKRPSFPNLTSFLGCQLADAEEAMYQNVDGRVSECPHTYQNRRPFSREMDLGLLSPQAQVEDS
How it was run: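 Enzyme plus biotinylated poly(Glu4-Tyr) substrate (30 nM) mixed with compound, then ATP added. Donor beads went in for 20 min at room temperature, then PY20 acceptor beads for 60 min. AlphaScreen read; ATP was 10 μM for FLT3-ITD/D835Y and 100 μM for c-KIT.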

| SMILES | IC50 [1] | IC50 (FLT3-D835Y) |
| --- | --- | --- |
| Cn1cnc(Nc2ncc(-c3ccc(CC(=O)Nc4cncc(C(F)(F)F)c4)c(F)c3)cn2)c1 [Compound P-0052, 2-[2-fluoro-4-[2-[(1-methylimidazol-4-yl)amino]pyrimidin-5-yl]phenyl]-N-[5-(trifluoromethyl)-3-pyridyl]acetamide] | 0.0001 to 10 µM | 0.0001 to 10 µM |
| CC(=O)c1c[nH]c2ncc(-c3ccc(CC(=O)Nc4ccnc(C(F)(F)F)c4)c(F)c3)cc12 [Compound P-0031, 2-(4-(3-acetyl-1H-pyrrolo[2,3-b]pyridin-5-yl)-2-fluorophenyl)-N-(2-(trifluoromethyl)pyridin-4-yl)acetamide] |  | 0.0001 to 10 µM |
| CCC(=O)c1c[nH]c2ncc(-c3ccc(CC(=O)Nc4cncc(C(F)(F)F)c4)c(F)c3)cc12 [Compound P-0068, 2-[2-fluoro-4-(3-propanoyl-1H-pyrrolo[2,3-b]pyridin-5-yl)phenyl]-N-[5-(trifluoromethyl)-3-pyridyl]acetamide] | 0.0001 to 10 µM | 0.0001 to 10 µM |
| CC(=O)c1c[nH]c2ncc(-c3ccc(CC(=O)Nc4cnc(C)c(C(F)(F)F)c4)c(F)c3)cc12 [Compound P-0063, 2-[4-(3-acetyl-1H-pyrrolo[2,3-b]pyridin-5-yl)-2-fluoro-phenyl]-N-[6-methyl-5-(trifluoromethyl)-3-pyridyl]acetamide] | 0.0001 to 10 µM | 0.0001 to 10 µM |
| O=C(Cc1cc(F)c(-c2cnc(Nc3cnn4ccccc34)nc2)cc1F)Nc1cncc(C(F)(F)F)c1 [Compound P-0075, 2-[2,5-difluoro-4-[2-(pyrazolo[1,5-a]pyridin-3-ylamino)pyrimidin-5-yl]phenyl]-N-[5-(trifluoromethyl)-3-pyridyl]acetamide] |  | 0.0001 to 10 µM |
| Cc1ncc(NC(=O)Cc2ccc(-c3cnc(Nc4cn[nH]c4)nc3)cc2F)cc1C(F)(F)F [Compound P-0027, 2-[2-fluoro-4-[2-(1H-pyrazol-4-ylamino)pyrimidin-5-yl]phenyl]-N-[6-methyl-5-(trifluoromethyl)-3-pyridyl]acetamide] | 0.0001 to 10 µM | 0.0001 to 10 µM |
| COc1ncc(NC(=O)Cc2ccc(-c3cnc(Nc4cnn(C)c4)nc3)cc2F)cc1C(F)(F)F [Compound P-0089, 2-[2-fluoro-4-[2-[(1-methylpyrazol-4-yl)amino]pyrimidin-5-yl]phenyl]-N-[6-methoxy-5-(trifluoromethyl)-3-pyridyl]acetamide] | 0.0001 to 10 µM | 0.0001 to 10 µM |
| COc1ncc(NC(=O)Cc2ccc(-c3cnc4[nH]c(Cl)cc4c3)cc2F)cc1C(F)(F)F [Compound P-0038, 2-[4-(2-chloro-1H-pyrrolo[2,3-b]pyridin-5-yl)-2-fluoro-phenyl]-N-[6-methoxy-5-(trifluoromethyl)-3-pyridyl]acetamide] | 0.0001 to 10 µM |  |
| O=C(Cc1ccc(-c2cnc3[nH]cc(F)c3c2)cc1F)Nc1cc(Cl)c(C2CC2)cn1 [Compound P-0044, N-(4-chloro-5-cyclopropyl-2-pyridyl)-2-[2-fluoro-4-(3-fluoro-1H-pyrrolo[2,3-b]pyridin-5-yl)phenyl]acetamide] | 0.0001 to 10 µM | 0.0001 to 10 µM |
| O=C(Cc1ccc(-c2cnc(Nc3cnn4ccccc34)nc2)cc1F)Nc1ccnc(C(F)(F)F)c1 [Compound P-0033, 2-[2-fluoro-4-[2-(pyrazolo[1,5-a]pyridin-3-ylamino)pyrimidin-5-yl]phenyl]-N-[2-(trifluoromethyl)-4-pyridyl]acetamide] | 0.0001 to 10 µM | 0.0001 to 10 µM |
| Cc1ncc(NC(=O)Cc2ccc(-c3cnc4c(c3)C3(CC3)C(=O)N4)cc2F)cc1C(F)(F)F [Compound P-0057, 2-[2-fluoro-4-(2-oxospiro[1H-pyrrolo[2,3-b]pyridine-3,1′-cyclopropane]-5-yl)phenyl]-N-[6-methyl-5-(trifluoromethyl)-3-pyridyl]acetamide] | 0.0001 to 10 µM | 0.0001 to 10 µM |
| Cn1cc(Nc2ncc(-c3ccc(CC(=O)NCc4ccc(C(F)(F)F)nc4)c(F)c3)cn2)cn1 [Compound P-0087, 2-[2-fluoro-4-[2-[(1-methylpyrazol-4-yl)amino]pyrimidin-5-yl]phenyl]-N-[[6-(trifluoromethyl)-3-pyridyl]methyl]acetamide] | 0.0001 to 10 µM | 0.0001 to 10 µM |
| O=C(Cc1ccc(-c2cnc(Nc3cnn(C(F)F)c3)nc2)c(F)c1)Nc1cc(C(F)(F)F)ccn1 [Compound P-0024, 2-[4-[2-[[1-(difluoromethyl)pyrazol-4-yl]amino]pyrimidin-5-yl]-3-fluoro-phenyl]-N-[4-(trifluoromethyl)-2-pyridyl]acetamide] | 0.0001 to 10 µM | 0.0001 to 10 µM |
| Cc1ncc(NC(=O)Cc2ccc(-c3cnc4[nH]nc(C5CC5)c4c3)cc2F)cc1C(F)(F)F [Compound P-0066, 2-(4-(3-cyclopropyl-1H-pyrazolo[3,4-b]pyridin-5-yl)-2-fluorophenyl)-N-(6-methyl-5-(trifluoromethyl)pyridin-3-yl)acetamide] | 0.0001 to 10 µM | 0.0001 to 10 µM |
| Cn1cc(Nc2ncc(-c3ccc(CC(=O)NCc4ccc(C(F)(F)F)cn4)cc3)cn2)cn1 [Compound P-0162, 2-[4-[2-[(1-methylpyrazol-4-yl)amino]pyrimidin-5-yl]phenyl]-N-[[5-(trifluoromethyl)-2-pyridyl]methyl]acetamide] | 0.0001 to 10 µM |  |
| O=C(Cc1ccc(-c2cnc3[nH]nc(C4CC4)c3c2)cc1F)Nc1cncc(C(F)(F)F)c1 [Compound P-0072, 2-[4-(3-cyclopropyl-1H-pyrazolo[3,4-b]pyridin-5-yl)-2-fluoro-phenyl]-N-[5-(trifluoromethyl)-3-pyridyl]acetamide] | 0.0001 to 10 µM | 0.0001 to 10 µM |
| COc1ncc(NC(=O)Cc2ccc(-c3cnc4[nH]cc(C(C)=O)c4c3)cc2F)cc1C(F)(F)F [Compound P-0035, 2-[4-(3-acetyl-1H-pyrrolo[2,3-b]pyridin-5-yl)-2-fluoro-phenyl]-N-[6-methoxy-5-(trifluoromethyl)-3-pyridyl]acetamide] | 0.0001 to 10 µM | 0.0001 to 10 µM |
| COc1ncc(NC(=O)Cc2ccc(-c3cnc4[nH]cc(F)c4c3)c(F)c2)cc1C(F)(F)F [Compound P-0048, 2-[3-fluoro-4-(3-fluoro-1H-pyrrolo[2,3-b]pyridin-5-yl)phenyl]-N-[6-methoxy-5-(trifluoromethyl)-3-pyridyl]acetamide] |  | 0.0001 to 10 µM |
| O=C(Cc1ccc(-c2cnc3[nH]c(Cl)cc3c2)cc1F)Nc1ccnc(C(F)(F)F)c1 [Compound P-0030, 2-[4-(2-chloro-1H-pyrrolo[2,3-b]pyridin-5-yl)-2-fluoro-phenyl]-N-[2-(trifluoromethyl)-4-pyridyl]acetamide] | 0.0001 to 10 µM |  |
| COc1ncc(NC(=O)Cc2cc(F)c(-c3cnc4[nH]cc(F)c4c3)cc2F)cc1C(F)(F)F [Compound P-0051, 2-[2,5-difluoro-4-(3-fluoro-1H-pyrrolo[2,3-b]pyridin-5-yl)phenyl]-N-[6-methoxy-5-(trifluoromethyl)-3-pyridyl]acetamide] |  | 0.0001 to 10 µM |
| Cc1cc(CC(=O)Nc2cccc(C(F)(F)F)c2)ccc1-c1cnc2[nH]c(-c3ccccc3)cc2c1 [Compound P-0002, 2-[3-methyl-4-(2-phenyl-1H-pyrrolo[2,3-b]pyridin-5-yl)phenyl]-N-[3-(trifluoromethyl)phenyl]acetamide] |  | 0.0001 to 10 µM |
| O=C(Cc1ccc(-c2cnc3[nH]cc(F)c3c2)cc1F)Nc1ccnc(C(F)(F)F)c1 [Compound P-0029, 2-[2-fluoro-4-(3-fluoro-1H-pyrrolo[2,3-b]pyridin-5-yl)phenyl]-N-[2-(trifluoromethyl)-4-pyridyl]acetamide] |  | 0.0001 to 10 µM |
| Cn1cc(Nc2ncc(-c3ccc(CC(=O)NCc4ccccn4)c(F)c3)cn2)cn1 [Compound P-0088, 2-[2-fluoro-4-[2-[(1-methylpyrazol-4-yl)amino]pyrimidin-5-yl]phenyl]-N-(2-pyridylmethyl)acetamide] | 0.0001 to 10 µM |  |
| COc1ncc(NC(=O)Cc2ccc(-c3cnc4[nH]cc(C(=O)C5CC5)c4c3)cc2F)cc1C(F)(F)F [Compound P-0036, 2-[4-[3-(cyclopropanecarbonyl)-1H-pyrrolo[2,3-b]pyridin-5-yl]-2-fluoro-phenyl]-N-[6-methoxy-5-(trifluoromethyl)-3-pyridyl]acetamide] |  | 0.0001 to 10 µM |
